What was measured:
Assay type in all cases: functional
Gossypium barbadense [1] = experiment: Induction of systemic acquired resistance against Fusarium oxysporum AUSB 26325 in Gossypium barbadense seeds assessed as reduction of disease index for germination under greenhouse condition at 0.05 ml/L after 7 days relative to infected control; design: scale not given: the % may be the effect or the level left
Gossypium barbadense [2] = experiment: Induction of systemic acquired resistance against Fusarium oxysporum AUSB 26325 in Gossypium barbadense seeds assessed as increase of fresh weight of seedling under greenhouse condition at 0.05 ml/L after 7 days
Gossypium barbadense [3] = experiment: Induction of systemic acquired resistance against Pythium debaryanum AUSB 26351 in Gossypium barbadense seeds assessed as reduction of disease index for germination under greenhouse condition at 0.05 ml/L after 7 days relative to infected control; design: scale not given: the % may be the effect or the level left
Gossypium barbadense [4] = experiment: Induction of systemic acquired resistance against Pythium debaryanum AUSB 26351 in Gossypium barbadense seeds assessed as increase of fresh weight of seedling under greenhouse condition at 0.05 ml/L after 7 days
Gossypium barbadense [5] = experiment: Induction of systemic acquired resistance against Pythium debaryanum AUSB 26351 in Gossypium barbadense seeds assessed as increase of germination under greenhouse condition at 0.05 ml/L after 7 days relative to control
Gossypium barbadense [6] = experiment: Induction of systemic acquired resistance against Pythium debaryanum AUSB 26351 in Gossypium barbadense seeds assessed as increase of dry weight of seedling under greenhouse condition at 0.05 ml/L after 7 days
Gossypium barbadense [7] = experiment: Induction of systemic acquired resistance against Fusarium oxysporum AUSB 26325 in Gossypium barbadense seeds assessed as increase of germination under greenhouse condition at 0.05 ml/L after 7 days relative to control
Gossypium barbadense [8] = experiment: Induction of systemic acquired resistance against Fusarium oxysporum AUSB 26325 in Gossypium barbadense seeds assessed as increase of dry weight of seedling under greenhouse condition at 0.05 ml/L after 7 days

SMILES: CSC(=O)c1cccc2nnsc12 [ACIBENZOLAR-S-METHYL]
- Activity (Gossypium barbadense [1]): 45.3%
- Activity (Gossypium barbadense [2]): 8.3 g
- Activity (Gossypium barbadense [3]): 60%
- Activity (Gossypium barbadense [4]): 2 g
- Activity (Gossypium barbadense [5]): 40%
- Activity (Gossypium barbadense [6]): 0.2 g
- Activity (Gossypium barbadense [7]): 40.7%
- Activity (Gossypium barbadense [8]): 0.9 g
